From patent US20230398130A1, “METHODS AND COMPOSITIONS FOR DIFFERENTIATING STEM CELLS” (Massachusetts Institute of Technology, priority 2020, published 2023)

Tests used:
[1] = system: ISC-enriched organoids; assay: Primary screen, 384-well 2.5-D organoid differentiation (ENR+CD, 6 days, Target Selective Inhibitor Library, vs whole-plate median): ATP (CellTiter-Glo 3D, CTG); conditions: for SSMD.CTG: strictly standardized mean difference; for Dose.FC.CTG: FC vs plate median
[2] = system: ISC-enriched organoids; assay: Primary screen, 384-well 2.5-D organoid differentiation (ENR+CD, 6 days): basal lysozyme secretion (LYZ.NS); assay type: cell-based, murine; conditions: primary screen; for SSMD.LYZ.NS: strictly standardized mean difference; for Dose.FC.LYZ.NS: FC vs plate median; for Z.LYZ.NS: standard z score
Excerpt: (§1) High-throughput screening.

[3] = system: ISC-enriched organoids; assay: Primary screen, 384-well 2.5-D organoid differentiation (ENR+CD, 6 days): carbachol-induced lysozyme secretion (LYZ.S); assay type: cell-based, murine; conditions: primary screen; for Z.LYZ.S: standard z score; for SSMD.LYZ.S: strictly standardized mean difference; for Dose.FC.LYZ.S: FC vs plate median
Excerpt: as §1

[4] = Dose 0.08 uM, primary screen, standard z score
[5] = Dose 0.40 uM, primary screen, standard z score
[6] = Dose 2.00 uM, primary screen, standard z score
[7] = Dose 10.00 uM, primary screen, standard z score
[8] = primary screen, 1st of the 4 dose lines of the treatment (dose not given)
[9] = primary screen, 2nd of the 4 dose lines of the treatment (dose not given)
[10] = primary screen, 3rd of the 4 dose lines of the treatment (dose not given)
[11] = primary screen, 4th of the 4 dose lines of the treatment (dose not given)
[12] = 1st of the 4 dose lines of the treatment (dose not given)
[13] = 2nd of the 4 dose lines of the treatment (dose not given)
[14] = 3rd of the 4 dose lines of the treatment (dose not given)
[15] = 4th of the 4 dose lines of the treatment (dose not given)

SMILES	Z.CTG [1, 4]	Z.CTG [1, 5]	Z.CTG [1, 6]	Z.CTG [1, 7]	SSMD.CTG [1, 8]	SSMD.CTG [1, 9]	SSMD.CTG [1, 10]	SSMD.CTG [1, 11]	SSMD.LYZ.NS [2, 12]	SSMD.LYZ.NS [2, 13]	SSMD.LYZ.NS [2, 14]	SSMD.LYZ.NS [2, 15]	Z.LYZ.S [3, 12]	Z.LYZ.S [3, 13]	Z.LYZ.S [3, 14]	Z.LYZ.S [3, 15]	SSMD.LYZ.S [3, 12]	SSMD.LYZ.S [3, 13]	SSMD.LYZ.S [3, 14]	SSMD.LYZ.S [3, 15]	further results
CC[C@H](C)C(=O)O[C@H]1C[C@@H](C)C=C2C=C[C@H](C)[C@H](CC[C@@H]3C[C@@H](O)CC(=O)O3)[C@H]21 [Lovastatin]	−0.769	−1.174	−2.803	−3.322	−0.609	−1.511	−2.978	−1.911	0.014	−0.516	−1.430	−1.590	−0.147	−0.320	−2.572	−2.645	−0.128	−0.236	−1.424	−1.288	–
CC(C)CCNC(=O)[C@H](CC(C)C)NC(=O)[C@H]1O[C@@H]1C(=O)O [Loxistatin Acid (E-64C)]	0.206	0.373	0.191	0.224	0.218	0.402	0.176	0.270	0.757	0.330	0.411	0.027	0.808	0.677	0.238	0.138	0.833	0.449	0.159	0.141	Dose.FC.CTG ([1]; Dose 0.08 uM, primary screen): 0.086 log 2 fold change; Dose.FC.CTG ([1]; Dose 0.40 uM, primary screen): 0.156 log 2 fold change; Dose.FC.CTG ([1]; Dose 2.00 uM, primary screen): 0.080 log 2 fold change; Dose.FC.CTG ([1]; Dose 10.00 uM, primary screen): 0.094 log 2 fold change; Dose.FC.LYZ.NS ([2]; Dose 0.08 uM): 0.147 log 2 fold change; Z.LYZ.NS ([2]; Dose 0.08 uM): 1.283; Dose.FC.LYZ.NS ([2]; Dose 0.40 uM): 0.061 log 2 fold change; Z.LYZ.NS ([2]; Dose 0.40 uM): 0.534; Dose.FC.LYZ.NS ([2]; Dose 2.00 uM): 0.055 log 2 fold change; Z.LYZ.NS ([2]; Dose 2.00 uM): 0.482; Dose.FC.LYZ.NS ([2]; Dose 10.00 uM): 0.004 log 2 fold change; Z.LYZ.NS ([2]; Dose 10.00 uM): 0.031; Dose.FC.LYZ.S ([3]; Dose 0.08 uM): 0.125 log 2 fold change; Dose.FC.LYZ.S ([3]; Dose 0.40 uM): 0.105 log 2 fold change; Dose.FC.LYZ.S ([3]; Dose 2.00 uM): 0.037 log 2 fold change; Dose.FC.LYZ.S ([3]; Dose 10.00 uM): 0.021 log 2 fold change
C=CCn1c(=O)c2cnc(Nc3ccc(N4CCN(C)CC4)cc3)nc2n1-c1cccc(C(C)(C)O)n1 [MK-1775]	–	–	–	–	0.536	−1.242	−1.697	−1.818	0.317	−1.150	−1.545	−0.993	0.424	−1.404	−1.345	−1.643	0.440	−1.378	−1.357	−1.331	Z.CTG ([1]; Dose 0.08 uM, standard z score of FC): 0.393; Z.CTG ([1]; Dose 0.40 uM, standard z score of FC): −1.074; Z.CTG ([1]; Dose 2.00 uM, standard z score of FC): −1.919; Z.CTG ([1]; Dose 10.00 uM, standard z score of FC): −2.451
